According to PubChem BioAssay (NCI):
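Method: 48-hour compound exposure of cells in 96-well plates, five concentrations, linear interpolation of endpoints. Abbreviation: GI50, concentration required for 50% inhibition of growth. The concentration for full growth arrest is given as TGI.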

Columns and labels:
Assay in all cases: NCI-60 cell line screen, 48 h
[1] = test system: SR leukemia
[2] = test system: MDA-MB-231 breast
[3] = test system: RXF 393 renal
[4] = test system: NCI-H522 lung
[5] = test system: SF-268 CNS
[6] = test system: RPMI-8226 leukemia
[7] = test system: K-562 leukemia
[8] = test system: HCT-116 colon
[9] = test system: A498 renal
[10] = test system: HCC-2998 colon

Structure (SMILES)	GI50 [1] [µM]	TGI [1] [µM]	GI50 [2] [µM]	TGI [2] [µM]	GI50 [3] [µM]	TGI [3] [µM]	GI50 [4] [µM]	TGI [4] [µM]	GI50 [5] [µM]	TGI [5] [µM]	GI50 [6] [µM]	TGI [6] [µM]	GI50 [7] [µM]	TGI [7] [µM]	GI50 [8] [µM]	TGI [8] [µM]	TGI [9] [µM]	TGI [10] [µM]	GI50 [10] [µM]	GI50 [9] [µM]
O=C1CC[C@@H]2[C@H]3CCC(=O)c4c3c(c3cccc(O)c3c4O)O[C@@]23C(=O)c2cccc(O)c2C(O)=C13	> 100	> 100	> 100	> 100	> 100	> 100	> 100	> 100	> 100	> 100	> 100	> 100	> 100	> 100	> 100	> 100	–	–	–	–
COC(=O)N1C=CC2=C(C)C3Nc4ccccc4C3C(C)=C2C1 (stereo not drawn)	–	–	–	–	–	–	–	10.7	–	74.2	–	5.87	–	14.5	–	2.57	> 100	11.9	–	–
CC[P+](C)(C)CC	–	> 100	–	–	–	> 100	–	–	–	> 100	–	> 100	–	> 100	–	> 100	–	> 100	–	–
C=CCC(NCc1ccccc1)c1cn(C(=O)OCC)c2ccccc12 (stereo not drawn)	–	–	18.2	44.1	19	46.5	19.8	42.6	> 100	> 100	13.1	35.8	2.37	15	13	25.7	–	28.3	14	–
N/N=C1\C(=O)N(c2ccc(Cl)c(Cl)c2)C(=O)C1C(=O)Nc1ccc(Cl)c(Cl)c1 (stereo not drawn)	–	–	–	–	–	> 100	–	> 100	–	> 100	–	> 100	–	> 100	–	> 100	> 100	> 100	–	–
NC(=O)c1c(-c2ccccc2)c(-c2ccccc2)cc2c(=O)c3ccccc3[nH]c12	–	–	–	–	–	–	–	20	–	> 100	–	> 100	–	> 100	–	35.9	39.7	> 100	–	–
CCOC(=O)c1nc2sc(Cl)cn2c1/C=N/N=C(N)N	–	–	14.3	37.2	18.8	> 70.2	20.5	47.1	32	> 100	13	> 51.5	17	53.6	18	40.8	–	–	–	–
CC[C@@]1(O)C(=O)OCc2c1cc1n(c2=O)Cc2cc3c(N)c(OC)ccc3nc2-1	< 0.01	–	–	–	0.0708	0.426	0.0434	1.31	0.0152	–	0.135	2.32	0.152	–	–	–	0.726	0.373	0.155	0.156
CC(C)CC1CC2C(=O)N(c3ccccc3)C(=O)C2c2[nH]c3ccccc3c21 (stereo not drawn)	–	76.4	–	–	–	44.9	–	> 100	–	> 100	–	> 100	–	> 42.7	–	34	> 51.3	> 31.6	–	–
CCOC(=O)C(c1ccsc1)P(=O)(OCC)OCC (stereo not drawn)	–	–	–	–	–	28.9	–	16.9	–	69.6	–	> 100	–	–	–	25.7	–	33.8	–	–
